The values below come from PubChem BioAssay (NCI).

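48-hour exposure; five concentrations; linearly interpolated endpoints. GI50 marks 50% less growth. TGI is the concentration that stops growth completely.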

Some test systems named below: UACC-257 melanoma; SR leukemia; UACC-62 melanoma; OVCAR-3 ovarian; MOLT-4 leukemia; SNB-19 CNS; OVCAR-4 ovarian; SNB-75 CNS; NCI-H23 lung; ACHN renal.
Holding throughout (test): NCI-60 cell line screen, 48 h

Regarding `COc1ccc(/C=C2\SC(=Nc3ccccc3)NC2=O)cc1`, the GI50 in the assay on UACC-257 melanoma is 52.2 µM; in the assay on SR leukemia, 2.5 µM; in the assay with UACC-62 melanoma, 4.79 µM; in the assay with OVCAR-3 ovarian, 3.67 µM; in the assay on MOLT-4 leukemia, 4.77 µM; with SNB-19 CNS, 6.34 µM. Besides, the GI50 was 10 µM in the assay with OVCAR-4 ovarian, 2.42 µM in the assay with SNB-75 CNS, 8.6 µM with NCI-H23 lung and 5.53 µM in the assay with ACHN renal. Moreover, the TGI with UACC-257 melanoma is greater than 100 µM; in the assay with SR leukemia, 30.7 µM; in the assay on UACC-62 melanoma it was greater than 100 µM; in the assay on OVCAR-3 ovarian, 11.2 µM; in the assay with MOLT-4 leukemia, greater than 100 µM; in the assay on SNB-19 CNS, 83.7 µM. For the same compound, the TGI with OVCAR-4 ovarian turned out to be 25.7 µM; with SNB-75 CNS, 10.9 µM; in the assay on NCI-H23 lung it was 80.5 µM; in the assay on ACHN renal, 48.5 µM.
Turning to `COC1CCC(OC)C(C2(C3CC(OC)CCC3OC)OC(=O)c3ccccc32)C1` (stereo not given), the TGI is greater than 100 µM with UACC-257 melanoma; greater than 100 µM in the assay with SR leukemia; greater than 100 µM with UACC-62 melanoma; greater than 100 µM in the assay with OVCAR-3 ovarian; 89.3 µM with MOLT-4 leukemia; greater than 100 µM in the assay with SNB-19 CNS. The TGI in the assay on OVCAR-4 ovarian, with SNB-75 CNS, in the assay with NCI-H23 lung and with ACHN renal was greater than 100 µM each time.
On to `O=C(Nc1ccc(F)cc1)Nc1ccc(Br)c(C(F)(F)F)c1`, for which the GI50 in the assay on UACC-257 melanoma is 2.73 µM; in the assay with SR leukemia, 1.88 µM; in the assay with UACC-62 melanoma, 2.29 µM; in the assay with OVCAR-3 ovarian it was 1.65 µM; in the assay with MOLT-4 leukemia, 1.95 µM; in the assay on SNB-19 CNS, 3.42 µM. Moreover, the GI50 in the assay on OVCAR-4 ovarian was 2.13 µM; with SNB-75 CNS, 1.79 µM; in the assay on NCI-H23 lung it was 2.04 µM; with ACHN renal, 2.09 µM. Further, the TGI came out at 7.51 µM with UACC-257 melanoma; 6.49 µM with SR leukemia; 10.1 µM in the assay on UACC-62 melanoma; 11.6 µM in the assay on OVCAR-3 ovarian; 5.53 µM with MOLT-4 leukemia; 15.6 µM with SNB-19 CNS. The TGI with OVCAR-4 ovarian worked out at 9.75 µM; in the assay with SNB-75 CNS it was 5.38 µM; in the assay with NCI-H23 lung it was 9.5 µM; with ACHN renal it was 7.64 µM.
`C[n+]1c2ccccc2nc2ccccc21`: the GI50 with UACC-257 melanoma was 1.8 µM; in the assay on SR leukemia it was 6.14 µM; with UACC-62 melanoma, 1.41 µM; in the assay on OVCAR-3 ovarian, 0.338 µM; in the assay on MOLT-4 leukemia, 4.19 µM; in the assay on SNB-19 CNS it was 4.03 µM. In addition, the GI50 was 0.447 µM in the assay on OVCAR-4 ovarian, 1.38 µM in the assay with SNB-75 CNS, 0.67 µM in the assay with NCI-H23 lung and 0.789 µM in the assay with ACHN renal. Besides, the TGI with UACC-257 melanoma is 5.01 µM; in the assay with SR leukemia, greater than 28.2 µM; with UACC-62 melanoma it was 2.99 µM; in the assay on OVCAR-3 ovarian it was 1.19 µM; with MOLT-4 leukemia, greater than 23.5 µM; with SNB-19 CNS, 16.8 µM. Besides, the TGI came out at 1.75 µM in the assay on OVCAR-4 ovarian, 3.1 µM with SNB-75 CNS, 2.34 µM with NCI-H23 lung and 5.5 µM with ACHN renal.
Regarding `CCOC1NC(=O)Oc2cc3ccccc3cc21` (stereo not given), the TGI with UACC-257 melanoma, with SR leukemia, in the assay on UACC-62 melanoma, in the assay with OVCAR-3 ovarian, in the assay on MOLT-4 leukemia and in the assay with SNB-19 CNS was greater than 100 µM throughout. The TGI in the assay with OVCAR-4 ovarian, with SNB-75 CNS, in the assay on NCI-H23 lung and in the assay with ACHN renal was greater than 100 µM in each case.
Turning to `COC(=O)c1c2c(c(C)[n+]([O-])c1C)C(=O)C=C(NCc1cccc(Cl)c1)C2=O`, the GI50 is 0.234 µM in the assay on UACC-257 melanoma; 0.35 µM in the assay on SR leukemia; 0.0741 µM in the assay with UACC-62 melanoma; 0.221 µM in the assay on OVCAR-3 ovarian; 0.505 µM in the assay with MOLT-4 leukemia; 1.01 µM in the assay on SNB-19 CNS. Moreover, the GI50 in the assay with OVCAR-4 ovarian is 0.21 µM; in the assay on SNB-75 CNS, 1.64 µM; in the assay with NCI-H23 lung, 0.463 µM; in the assay with ACHN renal it was 0.661 µM. Besides, the TGI in the assay on UACC-257 melanoma is 0.725 µM; in the assay with SR leukemia it was 6.64 µM; in the assay on UACC-62 melanoma, 0.459 µM; in the assay on OVCAR-3 ovarian, 0.665 µM; in the assay with MOLT-4 leukemia it was 1.89 µM; with SNB-19 CNS it was 2.18 µM. The TGI in the assay with OVCAR-4 ovarian stood at 0.938 µM; in the assay on SNB-75 CNS, 3.01 µM; with NCI-H23 lung it was 2.54 µM; in the assay with ACHN renal, 2.04 µM.
For the compound `Cc1c(Cl)cccc1NC(=O)/C=C/c1ccccc1`, the TGI with UACC-257 melanoma, with SR leukemia, in the assay on UACC-62 melanoma, in the assay with OVCAR-3 ovarian, in the assay on MOLT-4 leukemia and with SNB-19 CNS was greater than 100 µM each time. In addition, the TGI in the assay with OVCAR-4 ovarian, in the assay with SNB-75 CNS, in the assay with NCI-H23 lung and in the assay with ACHN renal was greater than 100 µM each time.
`Cc1ccc(S(=O)(=O)OC(COC(=O)c2ccccc2)C(OS(=O)(=O)c2ccc(C)cc2)C(OS(=O)(=O)c2ccc(C)cc2)C(COC(=O)c2ccccc2)OS(=O)(=O)c2ccc(C)cc2)cc1` (stereo not given): the TGI in the assay with UACC-257 melanoma was greater than 100 µM; in the assay with SR leukemia, greater than 100 µM; in the assay with UACC-62 melanoma it was greater than 10 µM; with OVCAR-3 ovarian, greater than 100 µM; in the assay on MOLT-4 leukemia it was greater than 100 µM; in the assay with SNB-19 CNS, greater than 100 µM. Moreover, the TGI in the assay with OVCAR-4 ovarian is greater than 100 µM; in the assay with SNB-75 CNS, 90 µM; in the assay with NCI-H23 lung, greater than 100 µM; in the assay with ACHN renal it was greater than 100 µM.
With `C[C@H]1COCCN1c1cc(C2(S(=O)(=O)C3CC3)CC2)nc(-c2ccc(NC(=S)NCCO)cc2)n1`, the GI50 in the assay on UACC-257 melanoma is 0.0187 µM; in the assay on SR leukemia it was 0.0296 µM; in the assay with UACC-62 melanoma, less than 0.01 µM; in the assay with OVCAR-3 ovarian it was 0.022 µM; in the assay on MOLT-4 leukemia it was 0.0467 µM; in the assay with SNB-19 CNS, 0.061 µM. Further, the GI50 with OVCAR-4 ovarian was 0.0159 µM; in the assay on SNB-75 CNS it was less than 0.01 µM; in the assay on NCI-H23 lung, 0.036 µM; in the assay on ACHN renal it was 0.0705 µM. The TGI with UACC-257 melanoma is 0.32 µM; with SR leukemia, greater than 58.2 µM; in the assay with UACC-62 melanoma, 0.0883 µM; in the assay on OVCAR-3 ovarian, 11.7 µM; in the assay on MOLT-4 leukemia, greater than 37.8 µM; with SNB-19 CNS, 11.5 µM. In addition, the TGI in the assay on OVCAR-4 ovarian is 0.233 µM; with SNB-75 CNS, 0.0865 µM; in the assay on NCI-H23 lung, 30.6 µM; in the assay with ACHN renal it was greater than 100 µM.
